Measured values from ChEMBL document CHEMBL1201862, “PubChem BioAssay data set” (2004).
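These data come from cells grown in 96-well plates and exposed to compound for 48 hours at five concentrations. The concentration for 50% growth inhibition is given as GI50.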 The source made the active and inactive calls. Cut-off read from the data, not from the text of the source: active = GI50 up to about 1.1 µM and inactive = higher.

Experiments:
Experiment in all cases: NCI tumour cell line growth inhibition, 48 h
HOP-92 = system: HOP-92
UACC-62 = system: UACC-62
LOX IMVI = system: LOX IMVI
EKVX = system: EKVX
SNB-19 = system: SNB-19
SK-MEL-5 = system: SK-MEL-5
TK-10 = system: TK-10
SW-620 = system: SW-620
T47D = system: T47D
MDA-MB-231 = system: MDA-MB-231
SF-268 = system: SF-268
RXF 393 = system: RXF 393
UO-31 = system: UO-31
CAKI-1 = system: CAKI-1
SN12C = system: SN12C
PC-3 = system: PC-3
MDA-N = system: MDA-N
DU-145 = system: DU-145
Malme-3M = system: Malme-3M
M14 = system: M14
NCI-H522 = system: NCI-H522
HL-60 = system: HL-60
786-0 = system: 786-0
NCI/ADR-RES = system: NCI/ADR-RES
K562 = system: K562
OVCAR-5 = system: OVCAR-5
CCRF-CEM = system: CCRF-CEM
SNB-75 = system: SNB-75
OVCAR-8 = system: OVCAR-8
SF-539 = system: SF-539
HCT-15 = system: HCT-15
HOP-62 = system: HOP-62
OVCAR-3 = system: OVCAR-3
HCC 2998 = system: HCC 2998
BT-549 = system: BT-549
HT-29 = system: HT-29
MOLT-4 = system: MOLT-4
ACHN = system: ACHN
SF-295 = system: SF-295
SR = system: SR
COLO 205 = system: COLO 205
U-251 = system: U-251
SK-MEL-28 = system: SK-MEL-28
RPMI-8226 = system: RPMI-8226
HCT-116 = system: HCT-116
Hs-578T = system: Hs-578T
A498 = system: A498
MCF7 = system: MCF7
MDA-MB-435 = system: MDA-MB-435
KM12 = system: KM12
NCI-H23 = system: NCI-H23
SK-MEL-2 = system: SK-MEL-2
A549 = system: A549
IGROV-1 = system: IGROV-1
NCI-H226 = system: NCI-H226
NCI-H460 = system: NCI-H460
SK-OV-3 = system: SK-OV-3
OVCAR-4 = system: OVCAR-4
UACC-257 = system: UACC-257

For `COc1ccc(C(=O)/C=C/c2ccc(OCC(=O)O)cc2)cc1`, the GI50 (HOP-92) was 31.5 µM (inactive), the GI50 (UACC-62) was 52.1 µM (inactive) and the GI50 (LOX IMVI) was 33.6 µM (inactive). The GI50 (EKVX) was > 100 µM (inactive), the GI50 (SNB-19) was 98.6 µM (inactive) and the GI50 (SK-MEL-5) was > 100 µM (inactive). The GI50 (TK-10) was > 100 µM (inactive), the GI50 (SW-620) was 41.5 µM (inactive) and the GI50 (T47D) was 38.4 µM (inactive). The GI50 (MDA-MB-231) was 59.2 µM (inactive), the GI50 (SF-268) was 43.9 µM (inactive) and the GI50 (RXF 393) was > 100 µM (inactive). For the same compound, the GI50 (UO-31) was > 100 µM (inactive), the GI50 (CAKI-1) was > 100 µM (inactive) and the GI50 (SN12C) was 71.3 µM (inactive). For the same compound, the GI50 (PC-3) was > 100 µM (inactive), the GI50 (MDA-N) was 34.4 µM (inactive) and the GI50 (DU-145) was > 100 µM (inactive). The GI50 (Malme-3M) was 50.7 µM (inactive), the GI50 (M14) was > 100 µM (inactive) and the GI50 (NCI-H522) was 36 µM (inactive). For the same compound, the GI50 (HL-60) was > 100 µM (inactive), the GI50 (786-0) was 60.1 µM (inactive) and the GI50 (NCI/ADR-RES) was 83.4 µM (inactive). The GI50 (K562) was 39.4 µM (inactive), the GI50 (OVCAR-5) was > 100 µM (inactive) and the GI50 (CCRF-CEM) was 31.7 µM (inactive). For the same compound, the GI50 (SNB-75) was > 100 µM (inactive), the GI50 (OVCAR-8) was 74.3 µM (inactive) and the GI50 (SF-539) was 46.6 µM (inactive). For the same compound, the GI50 (HCT-15) was greater than 100 µM, the GI50 (HOP-62) was > 100 µM (inactive) and the GI50 (OVCAR-3) was 60.4 µM (inactive). For the same compound, the GI50 (HCC 2998) was 27.7 µM (inactive), the GI50 (BT-549) was 38.6 µM (inactive) and the GI50 (HT-29) was > 100 µM (inactive). For the same compound, the GI50 (MOLT-4) was 8.57 µM (inactive), the GI50 (ACHN) was > 100 µM (inactive) and the GI50 (SF-295) was > 100 µM (inactive). For the same compound, the GI50 (SR) was 13 µM (inactive), the GI50 (COLO 205) was 70.3 µM (inactive) and the GI50 (U-251) was 27.7 µM (inactive). The GI50 (SK-MEL-28) was 36.6 µM (inactive), the GI50 (RPMI-8226) was > 100 µM (inactive) and the GI50 (HCT-116) was 47.1 µM (inactive). For the same compound, the GI50 (Hs-578T) was 70.1 µM (inactive), the GI50 (A498) was > 100 µM (inactive) and the GI50 (MCF7) was 42.8 µM (inactive). The GI50 (MDA-MB-435) was 32.8 µM (inactive), the GI50 (KM12) was 51.5 µM (inactive) and the GI50 (NCI-H23) was > 100 µM (inactive). The GI50 (SK-MEL-2) was 44.5 µM (inactive), the GI50 (A549) was > 100 µM (inactive) and the GI50 (IGROV-1) was > 100 µM (inactive).

With `N=c1oc2ccccc2cc1C(=O)Nc1cccc2ccccc12` the GI50 (HOP-92) was > 100 µM (inactive), the GI50 (NCI-H226) was > 100 µM (inactive) and the GI50 (UACC-62) was > 100 µM (inactive). The GI50 (LOX IMVI) was > 100 µM (inactive), the GI50 (SNB-19) was > 100 µM (inactive) and the GI50 (SK-MEL-5) was > 100 µM (inactive). For the same compound, the GI50 (NCI-H460) was > 100 µM (inactive), the GI50 (SW-620) was > 100 µM (inactive) and the GI50 (T47D) was > 100 µM (inactive). For the same compound, the GI50 (MDA-MB-231) was > 100 µM (inactive), the GI50 (SF-268) was > 100 µM (inactive) and the GI50 (RXF 393) was > 100 µM (inactive). The GI50 (CAKI-1) was > 100 µM (inactive), the GI50 (SN12C) was > 100 µM (inactive) and the GI50 (SK-OV-3) was > 100 µM (inactive). For the same compound, the GI50 (PC-3) was > 100 µM (inactive), the GI50 (MDA-N) was > 100 µM (inactive) and the GI50 (DU-145) was > 100 µM (inactive). For the same compound, the GI50 (OVCAR-4) was > 100 µM (inactive), the GI50 (Malme-3M) was 56.6 µM (inactive) and the GI50 (M14) was > 100 µM (inactive). The GI50 (UACC-257) was > 100 µM (inactive), the GI50 (HL-60) was > 100 µM (inactive) and the GI50 (786-0) was 80 µM (inactive). For the same compound, the GI50 (NCI/ADR-RES) was > 100 µM (inactive), the GI50 (K562) was > 100 µM (inactive) and the GI50 (OVCAR-5) was > 100 µM (inactive). For the same compound, the GI50 (CCRF-CEM) was > 100 µM (inactive), the GI50 (SNB-75) was > 100 µM (inactive) and the GI50 (OVCAR-8) was > 100 µM (inactive). The GI50 (SF-539) was > 100 µM (inactive), the GI50 (HCT-15) was greater than 100 µM and the GI50 (HOP-62) was 50 µM (inactive). The GI50 (OVCAR-3) was > 100 µM (inactive), the GI50 (HCC 2998) was > 100 µM (inactive) and the GI50 (BT-549) was > 100 µM (inactive). For the same compound, the GI50 (HT-29) was > 100 µM (inactive), the GI50 (MOLT-4) was > 100 µM (inactive) and the GI50 (ACHN) was > 100 µM (inactive). For the same compound, the GI50 (SR) was > 100 µM (inactive), the GI50 (COLO 205) was > 100 µM (inactive) and the GI50 (U-251) was 82.4 µM (inactive). The GI50 (SK-MEL-28) was > 100 µM (inactive), the GI50 (RPMI-8226) was > 100 µM (inactive) and the GI50 (HCT-116) was > 100 µM (inactive). The GI50 (Hs-578T) was > 100 µM (inactive), the GI50 (A498) was > 100 µM (inactive) and the GI50 (MCF7) was 83.2 µM (inactive). For the same compound, the GI50 (MDA-MB-435) was > 100 µM (inactive), the GI50 (KM12) was > 100 µM (inactive) and the GI50 (NCI-H23) was > 100 µM (inactive). The GI50 (SK-MEL-2) was > 100 µM (inactive), the GI50 (A549) was > 100 µM (inactive) and the GI50 (IGROV-1) was > 100 µM (inactive).

In the case of `COc1cc(C=C2C(C)=NN(c3cccc(Cl)c3)C23SCC(=O)N3c2nc3ccccc3s2)ccc1O` (stereo unspecified), the GI50 (HOP-92) is reported as 18 µM (inactive), the GI50 (NCI-H226) is reported as 35.1 µM (inactive) and the GI50 (UACC-62) is reported as 26.7 µM (inactive). For the same compound, the GI50 (LOX IMVI) was 27.5 µM (inactive), the GI50 (EKVX) was 39.5 µM (inactive) and the GI50 (SNB-19) was 31.8 µM (inactive). The GI50 (SK-MEL-5) was 18.2 µM (inactive), the GI50 (TK-10) was 35.3 µM (inactive) and the GI50 (NCI-H460) was 35.6 µM (inactive). For the same compound, the GI50 (SW-620) was 27.3 µM (inactive), the GI50 (T47D) was 33.3 µM (inactive) and the GI50 (MDA-MB-231) was 20.8 µM (inactive). For the same compound, the GI50 (SF-268) was 23.2 µM (inactive), the GI50 (RXF 393) was 29.2 µM (inactive) and the GI50 (UO-31) was 30.6 µM (inactive). The GI50 (CAKI-1) was 29.6 µM (inactive), the GI50 (SN12C) was 30.1 µM (inactive) and the GI50 (SK-OV-3) was 21.4 µM (inactive). For the same compound, the GI50 (PC-3) was 21.3 µM (inactive), the GI50 (MDA-N) was 31.5 µM (inactive) and the GI50 (DU-145) was 32.4 µM (inactive). The GI50 (OVCAR-4) was 36.2 µM (inactive), the GI50 (Malme-3M) was 16.5 µM (inactive) and the GI50 (M14) was 40.3 µM (inactive). For the same compound, the GI50 (UACC-257) was 32.7 µM (inactive), the GI50 (NCI-H522) was 17.9 µM (inactive) and the GI50 (HL-60) was 3.72 µM (inactive). For the same compound, the GI50 (786-0) was 29.5 µM (inactive), the GI50 (NCI/ADR-RES) was 33 µM (inactive) and the GI50 (K562) was 17.3 µM (inactive). The GI50 (OVCAR-5) was 46.3 µM (inactive), the GI50 (CCRF-CEM) was 4.56 µM (inactive) and the GI50 (OVCAR-8) was 20.1 µM (inactive). For the same compound, the GI50 (SF-539) was 24.3 µM (inactive), the GI50 (HCT-15) was 30.4 µM and the GI50 (HOP-62) was 26 µM (inactive). The GI50 (OVCAR-3) was 27 µM (inactive), the GI50 (HCC 2998) was 24.3 µM (inactive) and the GI50 (BT-549) was 25.9 µM (inactive). For the same compound, the GI50 (HT-29) was 33 µM (inactive), the GI50 (MOLT-4) was 15.8 µM (inactive) and the GI50 (ACHN) was 26.1 µM (inactive). For the same compound, the GI50 (SF-295) was 33.6 µM (inactive), the GI50 (SR) was 13.2 µM (inactive) and the GI50 (COLO 205) was 16.9 µM (inactive). For the same compound, the GI50 (U-251) was 18.8 µM (inactive), the GI50 (SK-MEL-28) was 33 µM (inactive) and the GI50 (RPMI-8226) was 13.4 µM (inactive). The GI50 (HCT-116) was 24.7 µM (inactive), the GI50 (Hs-578T) was 9.46 µM (inactive) and the GI50 (A498) was 26.4 µM (inactive). For the same compound, the GI50 (MCF7) was 27.7 µM (inactive), the GI50 (MDA-MB-435) was 29.4 µM (inactive) and the GI50 (KM12) was 30.8 µM (inactive). For the same compound, the GI50 (NCI-H23) was 30.1 µM (inactive), the GI50 (SK-MEL-2) was 19.4 µM (inactive) and the GI50 (A549) was 29.6 µM (inactive). For the same compound, the GI50 (IGROV-1) was 29.4 µM (inactive).
